Measured values taken from ChEMBL document CHEMBL5131482, “Synthesis and SAR of novel GPR39 agonists and positive allosteric modulators” (Bioorg Med Chem Lett, 2022).
Calls of active or inactive are those of the source. The calls are words filed in the database; no cut-off is given here.

Key:
[1] = target: T1, G-protein coupled receptor 39 (Homo sapiens, UniProt O43194); assay: Agonist activity at human GPR39 receptor expressed in CHO cells assessed as increase in ca2+ flux; type: functional, cell-based
T1 sequence (O43194 whole entry): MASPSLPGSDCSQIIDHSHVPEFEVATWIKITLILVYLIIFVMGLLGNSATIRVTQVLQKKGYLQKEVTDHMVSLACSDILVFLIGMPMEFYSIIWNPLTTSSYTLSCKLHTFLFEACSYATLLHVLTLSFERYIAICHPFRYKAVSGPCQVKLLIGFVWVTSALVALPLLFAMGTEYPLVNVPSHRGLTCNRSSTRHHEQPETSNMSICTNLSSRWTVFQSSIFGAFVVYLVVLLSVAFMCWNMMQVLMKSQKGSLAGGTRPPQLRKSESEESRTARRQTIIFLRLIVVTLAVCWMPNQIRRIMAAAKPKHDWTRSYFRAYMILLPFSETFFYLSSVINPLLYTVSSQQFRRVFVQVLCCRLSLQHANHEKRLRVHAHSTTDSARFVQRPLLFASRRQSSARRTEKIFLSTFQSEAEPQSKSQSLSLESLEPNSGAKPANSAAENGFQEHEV

[2] = target: T2, G-protein coupled receptor 39 (Homo sapiens) (UniProt O43194); assay: Agonist activity at human GPR39 receptor expressed in CHO cells assessed as increase in ca2+ flux relative to Zn2+; type: functional, cell-based
T2 sequence (whole entry): T1 sequence (O43194 whole entry)

[3] = target: T1, G-protein coupled receptor 39; assay: Positive allosteric activity at human GPR39 receptor expressed in CHO cells assessed as increase in zn2+ induced ca2+ flux; type: cell-based
[4] = target: T2, G-protein coupled receptor 39 (Homo sapiens); assay: Positive allosteric activity at human GPR39 receptor expressed in CHO cells assessed as increase in zn2+ induced ca2+ flux relative to Zn2+; type: cell-based; conditions: filed as positive allosteric modulator
[5] = test system: SH-SY5Y; assay: Cytotoxicity in human SH-SY5Y cells assessed as decrease in cell viability at 10 uM; type: toxicity, cell-based
[6] = test system: SH-SY5Y; assay: Neuroprotective activity against 6-OHDA-induced PD model of human SH-SY5Y cells assessed as increase in cell viability; type: functional, cell-based
[7] = filed as positive allosteric modulator

SMILES | EC50 [1] | Emax [2, 7] | EC50 [3] | also measured
CNc1nc(NCc2ccccc2Cl)cc(-c2ccccn2)n1 | 3 nM | 86% | > 27100 nM | 
Cc1cc(N2CCCC2c2cccnc2)n2ncc(-c3ccccn3)c2n1 (single isomer, unassigned; enantiomer 2) [listing 1 of 2 here] | 240 nM |  |  | EC50 ([3]; cho): > 27100 nM
O=C(Cc1nn(CC2CCC2)c(=O)c2ccccc12)NCc1ccccn1 | > 50000 nM |  | 4040 nM | Emax [4]: 49%
CNc1nc(NC2CCCCC2)cc(-c2ccccn2)n1 | 16 nM | 49% | > 27100 nM | 
Cc1cc(N2CCC(c3ccccc3)C2)n2ncc(-c3ccccn3)c2n1 (single isomer, unassigned; enantiomer 2) [listing 1 of 2 here] |  |  | 273 nM | EC50 ([1]; cho): > 10000 nM
CNc1nc(Oc2ccccc2)cc(-c2ccccn2)n1 | 481 nM | 58% | 23 nM | Emax [4]: 48%
Cc1cc(N2CCC(c3ccccc3)C2)n2ncc(-c3ccccn3)c2n1 (single isomer, unassigned; enantiomer 1) [listing 1 of 2 here] | > 10000 nM |  | 142 nM | 
Cc1cc(NC(C)(C)c2ccc(F)cc2)n2ncc(-c3ccccn3)c2n1 | 63 nM |  | > 27100 nM | Emax [2]: 38%
NC(Cc1cnc[nH]1)c1nc2ccc(-c3ccccc3)cc2c(=O)[nH]1 (stereo not drawn) | > 50000 nM |  | 251 nM | Emax [4]: 102%
Cc1cc(N2CCC(c3ccccc3)C2)n2ncc(-c3ccccn3)c2n1 (single isomer, unassigned; enantiomer 2) [listing 2 of 2 here] |  |  |  | Emax [4]: 54%
Cc1cc(N2C(=O)CCC2c2ccccc2)n2ncc(-c3ccccn3)c2n1 (racemic) | > 31600 nM |  | > 27100 nM | 
Cn1cc(-c2ccc3nc(C(N)CCOCc4ccccc4)[nH]c(=O)c3c2)cn1 (stereo not drawn) | > 50000 nM |  | 641 nM | Emax [4]: 83%
Cc1cc(NC(C)c2ccc(F)cc2)n2ncc(-c3ccccn3)c2n1 (single isomer, unassigned; enantiomer 2) [listing 1 of 2 here] | 26 nM |  |  | Activity [5]: Toxic; EC50 ([3]; cho): > 27100 nM
CNc1nc(NCc2ccc(NS(C)(=O)=O)cc2Cl)cc(-c2ccccn2)n1 | 15 nM | 84% | > 27100 nM | Activity [5]: Toxic; Activity [6]: Active
Cc1cc(N2CCCC2c2cccnc2)n2ncc(-c3ccccn3)c2n1 (single isomer, unassigned; enantiomer 1) [listing 1 of 2 here] | 79 nM |  | > 27100 nM | 
CNc1cc(-c2ccccn2)nc(NC2CCCCC2)n1 | > 31600 nM |  | 487 nM | Emax [4]: 88%
Cc1cc(N2CCCC2c2ccccc2)n2ncc(-c3ccccn3)c2n1 (racemic) | 17 nM |  | > 27100 nM | Emax [2]: 36%
Cc1cc(N2CCC(c3ccccc3)C2)n2ncc(-c3ccccn3)c2n1 (single isomer, unassigned; enantiomer 1) [listing 2 of 2 here] |  |  |  | Emax [4]: 65%
Cc1cc(N2CCCC2c2cccnc2)n2ncc(-c3ccccn3)c2n1 (single isomer, unassigned; enantiomer 2) [listing 2 of 2 here] |  | 64% |  | 
CNC(=O)C(Nc1cc(C)nc2c(-c3ccccn3)cnn12)c1ccc(F)cc1 (racemic) | 78 nM | 75% | > 27100 nM | 
Cc1cc(NC(C)c2ccc(F)cc2)n2ncc(-c3ccccn3)c2n1 (single isomer, unassigned; enantiomer 2) [listing 2 of 2 here] |  | 68% |  | Activity [6]: Active
Cc1cc(NC(C)c2ccc(F)cc2)n2ncc(-c3ccccn3)c2n1 (single isomer, unassigned; enantiomer 1) [listing 1 of 2 here] |  | 51% |  | 
N#Cc1ccc(N2CCN(Cc3cn4cc(Cl)ccc4n3)CC2)nc1 | 6250 nM | 48% |  | 
Cc1cc(NC(C)c2ccc(F)cc2)n2ncc(-c3ccccn3)c2n1 (single isomer, unassigned; enantiomer 1) [listing 2 of 2 here] | 17 nM |  | > 27100 nM | 
Cc1cc(N2CCCC2c2cccnc2)n2ncc(-c3ccccn3)c2n1 (single isomer, unassigned; enantiomer 1) [listing 2 of 2 here] |  | 58% |  | 
Cc1cc(NCc2ccc(F)cc2)n2ncc(-c3ccccn3)c2n1 | 15 nM | 57% | > 27100 nM | 
